By EC50 is commonly meant the concentration needed to bring the measured effect to its halfway point.

A value given as a limit tells only on which side of the number the result lay.

For this assay, the target named is T1, 17β-HSD10 (Homo sapiens, UniProt Q99714).
T1 construct: Histev (histidine tag with TEV site) (N, cleaved yes); made in house; host or cells: E. coli BL21-CodonPlus
T1 sequence (Q99714 1-261): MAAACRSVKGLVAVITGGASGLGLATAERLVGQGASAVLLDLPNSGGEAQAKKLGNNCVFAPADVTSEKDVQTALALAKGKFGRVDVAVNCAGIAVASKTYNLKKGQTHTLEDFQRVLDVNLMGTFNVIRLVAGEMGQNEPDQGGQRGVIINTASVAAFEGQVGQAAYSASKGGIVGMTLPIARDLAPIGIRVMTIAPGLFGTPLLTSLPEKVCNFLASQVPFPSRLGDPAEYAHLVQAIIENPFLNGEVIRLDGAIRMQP
Nature of the assay: 17β-HSD10 (ABAD) enzyme inhibition assay, NADH oxidation read at 340 nm (primary screen and dose response). Format: biochemical. The following applies: for EC50 / Max. Effect (%) / Hill Slope / Max. Fit / Min. Fit: recombinant 17βHSD10 enzyme assay; for Hill Slope / Max. Fit / Min. Fit: curve fit. The protocol:
Cell pellets of E. coli BL21-CodonPlus cells containing Histev-17β-HSD10 protein were re-suspended for 30 min, 4° C., in lysis buffer (20 mM NaH2PO4, 30 mM imidazole, 500 mM NaCl, 10% (v/v) glycerol, pH 7.5) with the addition of complete ethylenediaminetetraacetic acid (EDTA)-free protease inhibitor tablets (Roche), lysozyme (1 mg/mL), deoxyribonuclease (DNase) (20 μg/mL) and Triton X-100 (0.1% (v/v)). Cells were lysed by passage through a cell disruptor at 30 kPSI (Constant Systems Ltd) and the lysate was cleared by centrifugation (Sorvall Evolution RC, rotor S5-34 55-34 angle, 20500 rpm, 30 min, 4° C.). Cleared lysate was filtered (0.45 μm membrane; Whatman) then applied to a Ni-nitrilotriacetic acid (NTA) (GE Healthcare) column pre-washed with lysis buffer and protein eluted with 300 mM imidazole buffer (20 mM NaH2PO4, 300 mM imidazole, 500 mM NaCl, 10% (v/v) glycerol, pH 7.5). […] Protein digestion and dialysis was carried out at 4° C. for 16 h.
Complete digestion was firstly checked by sodium dodecyl sulfate-polyacrylamide gel electrophoresis (SDS-PAGE), then fully digested protein was passed over a second Ni-column and the flow-through, containing 17β-HSD10 protein, was concentrated using a Vivaspin column (10 kDa MWCO, GE Healthcare) to ˜7 mL before final purification using gel filtration to remove imidazole (Hi-Load 16/60 Superdex 75 prep grade column, GE Healthcare, flow rate 1.5 mL/min). Protein was eluted in gel filtration buffer (10 mM trisaminomethane (Tris-HCl), 150 mM NaCl, 10% glycerol, pH 7.5) and concentrated (Vivaspin column (10 kDa molecular weight cut off (MWCO), GE Healthcare)) to 10 mg/mL. Aliquots (10 μL) were taken and flash frozen in liquid nitrogen before final storage at −80° C.
The assay buffer used contains: 10 mM Tris. HCl (pH 7.4), 150 mM NaCl, 1 mM DTT, 0.005% Tween (polysorbate 20) and 0.01% bovine serum albumin (BSA). As indicated for some experiments the assay buffer was supplemented with 100 units/ml bovine liver catalase. All experiments were conducted in clear bottom 384-well or 1536-well low volume microplates (Corning) with a final assay volume of 20 μL and the reaction progress was monitored by oxidation of NADH as determined by reduction in absorbance at 340 nm read on the EnVision plate reader (PerkinElmer).
For primary screening an endpoint assay format was adopted in which an Echo acoustic liquid dispenser (Labcyte) was used to transfer 20 nL of either reference standard, dimethylsulfoxide (DMSO) control ([…] final assay concentration (FAC)) or test compounds (10 μM FAC) to the assay plate. 10 μL of 17β-HSD10 enzyme in assay buffer (2.5 nM, FAC) was then added to the plates using the Preddator liquid handling robot (Redd and Whyte) and plates were incubated at room temperature for 15 minutes. 10 μL of substrate mixture (100 μM acetoacetyl-CoA and 100 μM NADH, FAC) was added with the Preddator. To start the reaction and the plates were left to incubate for 35 minutes at room temperature before the absorbance at 340 nm was read on the EnVision plate reader (PerkinElmer). For kinetic assay format and dose response follow up experiments the same protocol was adopted but the absorbance at 340 nm was monitored constantly for 45 minutes from immediately after the reaction was started.

`COc1cccc(-c2ccccc2[C@@H]2CCCN2C(=O)C23CC(C2)C3)c1` (racemic) [ESC1002602]: the EC50 was more than 20 µM and the “Max. Effect (%)” value worked out at 43%.
On to `O=C(c1ncco1)N1CCC[C@H]1c1ccccc1` [S1−T9, 2-{[(2S)-2-phenylpyrrolidin-1-yl]carbonyl}-1,3-oxazole], for which the EC50 is more than 20 µM and the “Max. Effect (%)” value is recorded as 26.6%.
On to `COc1cccc(-c2ccccc2[C@H]2CCCN2C(=O)c2sccc2F)c1` [ESC1002431], for which the EC50 is 0.977 µM, the “Max. Effect (%)” value turned out to be 96%, the “Hill Slope” value came to 1.5 and the “Max. Fit” value worked out at 95. Further, the “Min. Fit” value came to 1.
With `O=C(c1sccc1Cl)N1CCC[C@H]1c1ccccc1-c1cncnc1` (racemic) [ESC1002698], the EC50 is 7.41 µM, the “Max. Effect (%)” value was 59%, the “Hill Slope” value was determined as 1.1 and the “Max. Fit” value was 71. Further, the “Min. Fit” value is reported as 1.
The matching figures for `CC(C)CN(C(=O)c1ccc(C(F)(F)F)cc1F)c1cccc(N(C)Cc2c[nH]cn2)c1` [ESC1002455, 2-fluoro-N-[3-[1H-imidazol-4-ylmethyl(methyl)amino]phenyl]-N-isobutyl-4-(trifluoromethyl)benzamide]: 1.26 µM, 92%, 0.99, 97 and −7.
The matching figures for `Cc1ccc(C(=O)N(CC(C)C)c2cccc(N(C)Cc3c[nH]cn3)c2)c(C)c1` [ESC1002492, N-[3-[1H-imidazol-4-ylmethyl(methyl)amino]phenyl]-N-isobutyl-2,4-dimethyl-benzamide]: 0.871 µM, 93%, 0.73, 104 and −10.
The matching figures for `CC(C)CN(C(=O)c1ccccc1F)c1cccc(N(CCO)Cc2c[nH]cn2)c1` [ESC1002723]: 5.13 µM, 81%, 1.1, 94 and 0.
As to `CC(C)CN(C(=O)c1ccccc1F)c1cccc(N(C)Cc2c[nH]nn2)c1` [ESC1002675], the EC50 was 4.47 µM, the “Max. Effect (%)” value is 75%, the “Hill Slope” value is 1.2 and the “Max. Fit” value was 87. Besides, the “Min. Fit” value is given as −2.
As for `O=C(c1[nH]ncc1Cl)N1CCC[C@H]1c1ccccc1` [S1−T14, 4-chloro-5-{[(2S)-2-phenylpyrrolidin-1-yl]carbonyl}-1H-pyrazole], the EC50 is more than 20 µM and the “Max. Effect (%)” value is on record as 20.8%.
As to `CC(C)CN(C(=O)c1ccncc1)c1cccc(N(C)Cc2cnc[nH]2)c1` [ESC1002034, N-[3-[1H-imidazol-5-ylmethyl(methyl)amino]phenyl]-N-isobutyl-pyridine-4-carboxamide], the EC50 is 1.58 µM, the “Max. Effect (%)” value was found to be 92%, the “Hill Slope” value stood at 0.8 and the “Max. Fit” value was found to be 106. In addition, the “Min. Fit” value is −3. Further, under “primary screening, resynthesized HTS hit compounds”, the “ABAD plC50” value is 5.8.
Turning to `O=C(c1sccc1Cl)N1CCC[C@H]1c1ccccc1-c1cccc(O)c1` (single isomer, unassigned) [ESC1002754], the EC50 was more than 20 µM and the “Max. Effect (%)” value was found to be 20%.
As to `Cc1ccsc1C(=O)N1CCC[C@@H]1c1ccccc1-c1cnn(CCO)c1` [ESC1002463], the EC50 was 3.47 µM, the “Max. Effect (%)” value is 87%, the “Hill Slope” value is given as 0.79 and the “Max. Fit” value is 110. The “Min. Fit” value is on record as −6.
Consider `Cc1ccc(C(=O)N(CC(C)C)c2nccc(N(C)Cc3cnc[nH]3)n2)cc1` [ESC1002817], for which the EC50 was more than 20 µM and the “Max. Effect (%)” value came to 4%.
Consider `CC(C)N(C(=O)c1ccccc1F)c1cccc(N(C)Cc2cnc[nH]2)c1` [ESC1002078, 2-fluoro-N-[3-[1H-imidazol-5-ylmethyl(methyl)amino]phenyl]-N-isopropyl-benzamide], for which the EC50 was 0.631 µM, the “Max. Effect (%)” value came out at 97%, the “Hill Slope” value was 1 and the “Max. Fit” value is on record as 101. Moreover, the “Min. Fit” value is −1.
The matching figures for `CN(Cc1c[nH]cn1)c1cccc(N(CC(C)(C)C)C(=O)c2ccccc2F)c1` [ESC1002517, N-(2,2-dimethylpropyl)-2-fluoro-N-[3-[1H-imidazol-4-ylmethyl(methyl)amino]phenyl]benzamide]: 2 µM, 92%, 0.87, 106 and −1.
The matching figures for `COc1cc(OC)cc(-c2ccccc2[C@@H]2CCCN2C(=O)c2sccc2Cl)c1` (racemic) [ESC1002662]: 0.603 µM, 92%, 1.2, 92 and −1.
The matching figures for `Cc1ccsc1C(=O)N1CCC[C@H]1c1ccccc1-c1ccccc1Cl` (single isomer, unassigned) [ESC1002767]: 0.155 µM, 96%, 0.98, 96 and −2.
With `CC(C)CN(C(=O)c1ccccc1F)c1cncc(N(C)Cc2c[nH]cn2)c1` [ESC1002802], the EC50 is more than 20 µM and the “Max. Effect (%)” value turned out to be 20%.
For `COc1cc(-c2ccccc2[C@@H]2CCCN2C(=O)c2sccc2Cl)ccc1F` (racemic) [ESC1002699], the EC50 was 0.263 µM, the “Max. Effect (%)” value is 97%, the “Hill Slope” value came out at 1.2 and the “Max. Fit” value worked out at 96. For the same compound, the “Min. Fit” value was 5.
The matching figures for `CC(C)CN(C(=O)c1ccccc1F)c1cccc(N(C)Cc2nc[nH]n2)c1` [ESC1002770]: 2.69 µM, 86%, 1.2, 91 and −4.
The matching figures for `CC(C)CN(C(=O)c1ccccc1F)c1cccc(N(C)CCO)c1` [ESC1002577]: 8.13 µM, 72%, 0.95, 100 and −1.
The matching figures for `COc1cccc(-c2ccccc2[C@@H]2CCCN2C(=O)c2cn[nH]c2)c1` (racemic) [ESC1002601]: 6.31 µM, 82%, 0.74, 115 and −7.
Turning to `COc1ccc(-c2ccc(-c3cn[nH]c3)s2)c(OC)c1OC` [ESC1002024, 4-[5-(2,3,4-trimethoxyphenyl)-2-thienyl]-1H-pyrazole], the EC50 was 3.98 µM, the “Max. Effect (%)” value came to 89%, the “Hill Slope” value is on record as 1.2 and the “Max. Fit” value is given as 101. The “Min. Fit” value is given as 2.
